Results from ChEMBL document CHEMBL4393651, “Class 1 PI3K Clinical Candidates and Recent Inhibitor Design Strategies: A Medicinal Chemistry Perspective” (J Med Chem, 2019).
Converted amounts (≈) assume the structure as drawn. Blank lines part the entries; values can stand above or below the molecule they belong to.

What was measured:
[1] = Inhibition of PI3K in human lung parenchyma cells assessed as reduction in IFNgamma secretion
[2] = target: Phosphatidylinositol 4,5-bisphosphate 3-kinase catalytic subunit gamma isoform (Homo sapiens, UniProt P48736); assay: Inhibition of PI3Kgamma (unknown origin)
Sequence of Phosphatidylinositol 4,5-bisphosphate 3-kinase catalytic subunit gamma isoform (P48736 whole entry, canonical isoform): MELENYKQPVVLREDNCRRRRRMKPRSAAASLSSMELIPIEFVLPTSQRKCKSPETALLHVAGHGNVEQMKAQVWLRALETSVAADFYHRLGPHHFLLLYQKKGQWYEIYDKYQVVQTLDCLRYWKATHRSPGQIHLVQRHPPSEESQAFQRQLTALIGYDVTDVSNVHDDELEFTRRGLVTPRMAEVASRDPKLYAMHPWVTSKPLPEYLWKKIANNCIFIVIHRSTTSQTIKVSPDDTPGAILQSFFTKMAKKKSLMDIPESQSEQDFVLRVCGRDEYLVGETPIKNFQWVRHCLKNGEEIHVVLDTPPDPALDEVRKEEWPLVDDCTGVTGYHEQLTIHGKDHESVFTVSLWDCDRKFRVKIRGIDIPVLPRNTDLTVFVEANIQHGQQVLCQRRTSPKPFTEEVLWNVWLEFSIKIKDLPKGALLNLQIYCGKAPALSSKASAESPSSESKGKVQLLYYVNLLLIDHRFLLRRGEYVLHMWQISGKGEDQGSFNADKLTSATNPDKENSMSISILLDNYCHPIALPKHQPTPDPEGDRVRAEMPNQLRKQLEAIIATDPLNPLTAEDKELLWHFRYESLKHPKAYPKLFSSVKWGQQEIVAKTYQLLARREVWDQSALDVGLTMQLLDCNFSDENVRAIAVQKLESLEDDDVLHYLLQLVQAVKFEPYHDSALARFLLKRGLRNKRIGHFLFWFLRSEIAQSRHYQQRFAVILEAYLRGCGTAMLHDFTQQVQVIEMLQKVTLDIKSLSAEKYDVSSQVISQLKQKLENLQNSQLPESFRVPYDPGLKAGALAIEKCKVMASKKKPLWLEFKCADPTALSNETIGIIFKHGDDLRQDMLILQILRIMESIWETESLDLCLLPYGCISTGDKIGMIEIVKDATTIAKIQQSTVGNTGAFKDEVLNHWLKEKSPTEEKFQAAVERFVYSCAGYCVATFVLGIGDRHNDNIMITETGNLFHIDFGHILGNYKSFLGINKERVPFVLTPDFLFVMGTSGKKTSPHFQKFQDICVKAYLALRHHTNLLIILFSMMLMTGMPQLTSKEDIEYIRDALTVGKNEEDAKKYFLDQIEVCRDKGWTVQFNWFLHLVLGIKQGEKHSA

[3] = target: Phosphatidylinositol 4,5-bisphosphate 3-kinase catalytic subunit alpha isoform (Homo sapiens, UniProt P42336); assay: Inhibition of PI3Kalpha (unknown origin)
Sequence of Phosphatidylinositol 4,5-bisphosphate 3-kinase catalytic subunit alpha isoform (P42336 whole entry, canonical isoform): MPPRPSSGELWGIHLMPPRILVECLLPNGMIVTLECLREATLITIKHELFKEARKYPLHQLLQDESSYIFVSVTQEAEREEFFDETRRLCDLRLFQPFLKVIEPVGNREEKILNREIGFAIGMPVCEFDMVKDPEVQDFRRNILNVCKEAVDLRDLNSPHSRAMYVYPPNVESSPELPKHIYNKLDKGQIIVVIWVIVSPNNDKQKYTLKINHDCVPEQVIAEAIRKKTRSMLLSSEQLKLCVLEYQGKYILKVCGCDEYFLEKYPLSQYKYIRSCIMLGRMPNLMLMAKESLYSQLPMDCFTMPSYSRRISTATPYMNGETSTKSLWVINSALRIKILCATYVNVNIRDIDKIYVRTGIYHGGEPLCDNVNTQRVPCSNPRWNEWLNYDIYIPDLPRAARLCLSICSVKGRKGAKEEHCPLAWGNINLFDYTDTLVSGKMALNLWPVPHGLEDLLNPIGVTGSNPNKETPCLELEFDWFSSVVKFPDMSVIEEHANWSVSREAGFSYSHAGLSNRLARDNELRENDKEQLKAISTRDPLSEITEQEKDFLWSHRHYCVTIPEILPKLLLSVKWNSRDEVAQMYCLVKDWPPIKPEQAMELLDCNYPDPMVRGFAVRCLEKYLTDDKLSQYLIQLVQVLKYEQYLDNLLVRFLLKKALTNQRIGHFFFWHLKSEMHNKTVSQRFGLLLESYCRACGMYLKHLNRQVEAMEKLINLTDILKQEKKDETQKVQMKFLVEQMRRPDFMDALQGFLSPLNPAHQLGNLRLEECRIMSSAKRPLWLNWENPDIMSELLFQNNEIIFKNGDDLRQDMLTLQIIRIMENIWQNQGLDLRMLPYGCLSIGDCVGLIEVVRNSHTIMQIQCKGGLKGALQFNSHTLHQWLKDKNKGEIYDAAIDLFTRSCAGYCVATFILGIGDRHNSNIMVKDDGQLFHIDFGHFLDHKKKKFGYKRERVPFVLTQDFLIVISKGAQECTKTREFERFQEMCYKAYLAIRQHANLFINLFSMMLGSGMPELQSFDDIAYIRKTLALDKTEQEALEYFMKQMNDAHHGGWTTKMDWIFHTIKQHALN

[4] = Inhibition of PI3K in human lung parenchyma cells assessed as reduction in IL2 secretion
[5] = Inhibition of PI3K in human PBMC assessed as reduction in IFNgamma secretion
[6] = target: T1, Phosphatidylinositol 4,5-bisphosphate 3-kinase catalytic subunit beta isoform (Homo sapiens, UniProt P42338); assay: Inhibition of PI3Kbeta (unknown origin)
T1 sequence (P42338 whole entry, canonical isoform): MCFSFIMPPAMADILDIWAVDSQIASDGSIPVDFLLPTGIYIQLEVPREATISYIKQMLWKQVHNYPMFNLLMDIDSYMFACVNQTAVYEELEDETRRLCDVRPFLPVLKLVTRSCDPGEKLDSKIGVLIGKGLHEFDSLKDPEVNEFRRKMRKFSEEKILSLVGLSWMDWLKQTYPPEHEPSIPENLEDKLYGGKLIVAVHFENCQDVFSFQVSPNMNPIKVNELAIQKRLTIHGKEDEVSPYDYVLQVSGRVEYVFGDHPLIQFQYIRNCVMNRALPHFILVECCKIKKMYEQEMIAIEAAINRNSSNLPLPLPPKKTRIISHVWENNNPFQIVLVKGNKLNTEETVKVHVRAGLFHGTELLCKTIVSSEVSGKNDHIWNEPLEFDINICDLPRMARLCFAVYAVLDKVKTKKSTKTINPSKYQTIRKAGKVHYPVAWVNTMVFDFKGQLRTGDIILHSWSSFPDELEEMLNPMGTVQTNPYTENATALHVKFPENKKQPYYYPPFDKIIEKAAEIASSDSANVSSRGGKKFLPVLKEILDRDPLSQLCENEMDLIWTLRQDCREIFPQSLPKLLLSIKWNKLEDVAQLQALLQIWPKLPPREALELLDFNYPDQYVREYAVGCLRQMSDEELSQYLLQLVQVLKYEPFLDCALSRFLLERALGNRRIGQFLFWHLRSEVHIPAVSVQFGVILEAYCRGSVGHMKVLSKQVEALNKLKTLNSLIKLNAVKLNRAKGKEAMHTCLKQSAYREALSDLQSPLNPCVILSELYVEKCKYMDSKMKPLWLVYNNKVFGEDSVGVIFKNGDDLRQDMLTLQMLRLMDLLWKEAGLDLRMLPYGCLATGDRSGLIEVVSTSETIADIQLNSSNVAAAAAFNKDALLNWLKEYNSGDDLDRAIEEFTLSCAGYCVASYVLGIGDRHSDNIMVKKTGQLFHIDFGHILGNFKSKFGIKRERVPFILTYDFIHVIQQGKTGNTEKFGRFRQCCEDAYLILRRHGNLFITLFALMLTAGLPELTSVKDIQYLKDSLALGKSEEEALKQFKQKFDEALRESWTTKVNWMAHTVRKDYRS

Rattus norvegicus = species: Rattus norvegicus; assay: Antiinflammatory activity in Brown Norway rat acute OVA model of Th2 driven lung inflammation assessed as protection against eosinophil recruitment; type: functional
[7] = target: T1, Phosphatidylinositol 4,5-bisphosphate 3-kinase catalytic subunit beta isoform; assay: Inhibition of N-terminal His-tagged truncated human PI3Kbeta (deltaN 1 to 108 residues) after 2 hrs in presence of [33P]ATP by BetaPlate liquid scintillation counting analysis
[8] = Aqueous solubility of the compound at pH 7.4; type: physicochemical
[9] = target: T2, Phosphatidylinositol 4,5-bisphosphate 3-kinase catalytic subunit delta isoform (Homo sapiens, UniProt O00329); assay: Inhibition of PI3Kdelta (unknown origin)
T2 sequence (O00329 whole entry): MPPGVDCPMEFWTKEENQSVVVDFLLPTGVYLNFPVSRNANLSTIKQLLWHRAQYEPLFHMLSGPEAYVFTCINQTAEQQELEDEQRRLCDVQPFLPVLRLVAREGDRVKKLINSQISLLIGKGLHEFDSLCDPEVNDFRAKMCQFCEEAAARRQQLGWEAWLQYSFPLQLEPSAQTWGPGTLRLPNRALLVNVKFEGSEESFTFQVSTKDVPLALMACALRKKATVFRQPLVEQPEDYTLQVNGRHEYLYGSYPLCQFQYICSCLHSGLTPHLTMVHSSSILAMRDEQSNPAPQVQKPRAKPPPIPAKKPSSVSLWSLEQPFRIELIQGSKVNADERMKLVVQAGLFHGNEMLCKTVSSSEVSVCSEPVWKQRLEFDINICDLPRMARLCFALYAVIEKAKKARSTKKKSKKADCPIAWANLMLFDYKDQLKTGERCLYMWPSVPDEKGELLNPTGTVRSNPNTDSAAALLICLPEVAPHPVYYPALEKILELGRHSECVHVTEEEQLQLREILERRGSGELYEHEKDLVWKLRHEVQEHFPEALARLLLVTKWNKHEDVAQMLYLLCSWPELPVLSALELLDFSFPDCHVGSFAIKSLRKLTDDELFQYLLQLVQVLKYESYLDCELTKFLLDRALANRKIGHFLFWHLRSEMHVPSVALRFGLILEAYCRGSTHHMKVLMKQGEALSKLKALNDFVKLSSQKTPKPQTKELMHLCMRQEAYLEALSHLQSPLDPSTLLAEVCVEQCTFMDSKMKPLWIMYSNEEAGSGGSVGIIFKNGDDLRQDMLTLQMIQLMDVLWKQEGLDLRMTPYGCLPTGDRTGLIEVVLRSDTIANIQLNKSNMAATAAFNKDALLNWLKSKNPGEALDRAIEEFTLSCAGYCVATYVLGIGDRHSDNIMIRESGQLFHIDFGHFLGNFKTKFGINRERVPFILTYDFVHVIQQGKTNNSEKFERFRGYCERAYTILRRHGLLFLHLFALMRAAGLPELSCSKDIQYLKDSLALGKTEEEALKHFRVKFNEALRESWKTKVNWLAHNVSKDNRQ

[10] = Oral bioavailability in rat; type: ADME, organism-based; settings: in vivo

SMILES: COc1ncc(-c2cc(-c3ncc(CN4C[C@@H](C)O[C@@H](C)C4)o3)c3cn[nH]c3c2)cc1NS(C)(=O)=O
IC50 [1]: 2 nM
Ki [2]: 501 nM
Ki [3]: 501 nM
IC50 [4]: 3.16 nM
pKi [5]: 9.2
Ki [6]: 631 nM
ED50 (Rattus norvegicus): 0.035 mg/kg

SMILES: Cc1nnc2n1[C@@H]1CCN(Cc3cc4nc(-c5cccc6[nH]ccc56)nc(N5CCOCC5)c4s3)C[C@@H]1CC2
solubility [8]: 20 µg/mL (≈ 37 µM)
IC50 [9]: 0.794 nM

SMILES: CC(C)N1CCN(Cc2cnc(-c3cc(-c4cccc5[nH]ccc45)cc4[nH]ncc34)o2)CC1 [NEMIRALISIB]
bioavailability [10]: < 2%

The next lines start with the values.

IC50 [7]: 1 nM
SMILES: O=C(NC1=Nc2ccccc2C2=NCCN12)c1cccnc1

IC50 [2]: 50.1 nM
IC50 [3]: 316 nM
IC50 [6]: 1000 nM
IC50 [9]: 2 nM
SMILES: Cc1nc(C(=O)Nc2cc(-c3cnc(Cl)c(NS(=O)(=O)c4ccccc4)c3)cc3[nH]ncc23)cs1
